The results in this text go back to patent US20250129027A1 (APOGEE PHARMACEUTICALS, INC., priority 2023, published 2025).

The target in one test is human recombinant FAAH (Homo sapiens (Human), UniProt O00519). Briefly: In vitro inhibition of FAAH activity (fluorescent inhibitor screening kit, AMC arachidonoyl amide). The conditions noted are these: human recombinant FAAH; read-out: Inhibition on FAAH activity (IC50). Format: biochemical. The text has this: The inhibitory effect of compounds of Formula (I-IV) on the activity of human recombinant FAAH was studied using a commercial inhibitor screening kit (Cayman Chemicals, Godlewski et al., 2010 [19]). In brief, FAAH hydrolyzes AMC arachidonoyl amide resulting in the release of the fluorescent product, while the inhibitor will inhibit the FAAH activity and thus reduce the fluorescent signal. The resulting fluorophore can be analyzed using an excitation wavelength of 340-360 nm and an emission wavelength of 450-465 nm by a plate reader (Synergy H1, Biotek). Inhibition is calculated as a percentage of the treated sample over the non-treated control based on the signal values, and where possible, a range of concentrations of compounds was tested to find the IC50 values (i.e. the concentration of compound that inhibited 50% FAAH activity).
human recombinant FAAH, sequence (O00519 whole entry): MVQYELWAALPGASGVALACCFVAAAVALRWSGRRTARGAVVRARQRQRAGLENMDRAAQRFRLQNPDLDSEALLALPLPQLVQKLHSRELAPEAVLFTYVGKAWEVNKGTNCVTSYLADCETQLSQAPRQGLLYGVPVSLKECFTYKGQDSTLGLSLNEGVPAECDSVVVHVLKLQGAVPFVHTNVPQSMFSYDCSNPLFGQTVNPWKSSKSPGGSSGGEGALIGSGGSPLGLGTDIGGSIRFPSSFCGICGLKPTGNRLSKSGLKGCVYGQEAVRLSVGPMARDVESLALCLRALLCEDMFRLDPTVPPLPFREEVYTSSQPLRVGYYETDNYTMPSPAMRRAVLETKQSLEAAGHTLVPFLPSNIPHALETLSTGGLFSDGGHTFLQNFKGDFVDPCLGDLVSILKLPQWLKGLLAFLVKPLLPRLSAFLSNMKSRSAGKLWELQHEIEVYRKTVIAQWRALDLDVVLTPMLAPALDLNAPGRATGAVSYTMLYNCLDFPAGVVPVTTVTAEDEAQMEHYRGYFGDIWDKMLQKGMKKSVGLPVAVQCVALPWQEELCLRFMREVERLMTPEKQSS

The next test deals with human recombinant MAGL (Homo sapiens (Human), UniProt Q99685). As to the kind of experiment: In vitro inhibition of MAGL activity (inhibitor screening kit, 4-nitrophenylacetate). Format: biochemical. The conditions noted are these: for pIC50: human recombinant MAGL. As to the method: The inhibitory effect of the compounds on activity of human recombinant MAGL was also studied using a commercial inhibitor screening kit (Cayman Chemicals). In brief, MAGL hydrolyzes 4-nitrophenylacetate resulting in a yellow product, 4-nitrophenol with an absorbance at 405-412 nm, while the inhibitor will inhibit the MAGL activity and thus reduce the yellow signal. The absorbance of the yellow product can be analyzed using the plate reader. Inhibition is calculated as a percentage of the treated sample over the non-treated MAGL control based on the signal values.
human recombinant MAGL, sequence (Q99685 whole entry): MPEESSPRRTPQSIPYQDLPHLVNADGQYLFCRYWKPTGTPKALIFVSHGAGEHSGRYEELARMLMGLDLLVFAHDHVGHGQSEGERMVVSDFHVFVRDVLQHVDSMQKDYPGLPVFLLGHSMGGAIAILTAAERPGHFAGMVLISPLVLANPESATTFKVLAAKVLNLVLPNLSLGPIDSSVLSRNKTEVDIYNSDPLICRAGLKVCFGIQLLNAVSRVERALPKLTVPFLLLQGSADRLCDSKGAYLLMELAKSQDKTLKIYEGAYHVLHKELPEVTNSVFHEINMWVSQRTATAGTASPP

pIC50: −log10 of the molar value.

On to `O=C(Oc1cccc(-c2cncc(-c3nnco3)c2)c1)N1CC2CCCC2C1` (stereo not drawn) [Example 149, 3-(5-(1,3,4-oxadiazol-2-yl)pyridin-3-yl)phenyl hexahydrocyclopenta[c]pyrrole-2(1H)-carboxylate], for which the pIC50 at human recombinant FAAH was 7.00 to 8.00; on human recombinant MAGL, 5.00 to 6.00.

As for `CCCCCCCCNC(=O)Oc1cc(O)cc(-c2cncc(-c3nnco3)c2)c1` [Example 160, 3-(5-(1,3,4-oxadiazol-2-yl)pyridin-3-yl)-5-hydroxyphenyl octylcarbamate], the values for the pIC50 on human recombinant FAAH and at human recombinant MAGL were 8.00 to 9.00 and 5.00 to 6.00, respectively.

On to `O=C(NC1CCCCC1)Oc1ccc(F)c(-c2cncc(-c3nnco3)c2)c1` [Example 192, 3-(5-(1,3,4-oxadiazol-2-yl)pyridin-3-yl)-4-fluorophenyl cyclohexylcarbamate], for which the pIC50 on human recombinant FAAH is 7.00 to 8.00; on human recombinant MAGL it was less than 5.00.

Turning to `O=C(NCC1CCCCC1)Oc1cccc(-c2cncc(-c3ccc[nH]3)c2)c1` [Example 36, 3-(5-(1H-pyrrol-2-yl)pyridin-3-yl)phenyl (cyclohexylmethyl)carbamate], the values for the pIC50 on human recombinant FAAH and at human recombinant MAGL were 6.00 to 7.00 and approximately 5.00, respectively.

On to `Cc1cc(OC(=O)NC2CCCCCC2)cc(-c2cncc(-c3ncco3)c2)c1` [Example 103, 3-methyl-5-(5-(oxazol-2-yl)pyridin-3-yl)phenyl cycloheptylcarbamate], for which the figures for the negative-log IC50 (pIC50) on human recombinant FAAH and at human recombinant MAGL were 6.00 to 7.00 and approximately 5.00, respectively.

For the compound `COc1ccc(OC(=O)NC2CCCCC2)cc1-c1cncc(-c2cccs2)c1` [Example 69, 4-methoxy-3-(5-(thiophen-2-yl)pyridin-3-yl)phenyl cyclohexylcarbamate], the pIC50 on human recombinant FAAH was 6.00 to 7.00; on human recombinant MAGL it was less than 5.00.

Turning to `O=C(NC1CCCCC1)Oc1cccc(-c2cncc(-c3ncn[nH]3)c2)c1` [Example 224, 3-(5-(1H-1,2,4-triazol-5-yl)pyridin-3-yl)phenyl cyclohexylcarbamate], the results for the negative logarithm of the IC50 (pIC50) on human recombinant FAAH and at human recombinant MAGL were 6.00 to 7.00 and less than 5.00, respectively.

Regarding `CC1CCC(NC(=O)Oc2ccc(O)c(-c3cncc(-c4nnco4)c3)c2)CC1` (stereo not drawn) [Example 159], the pIC50 on human recombinant FAAH was 7.00 to 8.00; at human recombinant MAGL, less than 5.00.

Regarding `O=C(NC1CCCCC1)Oc1ccc(OC(F)(F)F)c(-c2cncc(-c3ncco3)c2)c1` [Example 89, 3-(5-(oxazol-2-yl)pyridin-3-yl)-4-(trifluoromethoxy)phenyl cyclohexylcarbamate], the pIC50 was 6.00 to 7.00 at human recombinant FAAH and less than 5.00 at human recombinant MAGL.

As to `COc1ccc(OC(=O)NC2CCC(C)CC2)cc1-c1cncc(-c2ncco2)c1` (stereo not drawn) [Example 82, 4-methoxy-3-(5-(oxazol-2-yl)pyridin-3-yl)phenyl (4-methylcyclohexyl)carbamate], the pIC50 at human recombinant FAAH is 6.00 to 7.00; at human recombinant MAGL, less than 5.00.

For `CSc1ccc(OC(=O)NCC2CCCCC2)cc1-c1cncc(-c2nnco2)c1` [Example 187, 3-(5-(1,3,4-oxadiazol-2-yl)pyridin-3-yl)-4-(methylthio)phenyl (cyclohexylmethyl) carbamate], the pIC50 on human recombinant FAAH is 6.00 to 7.00; on human recombinant MAGL it was less than 5.00.

For the compound `Cc1cc(OC(=O)NCc2ccccc2)cc(-c2cncc(-c3ncco3)c2)c1` [Example 100, 3-methyl-5-(5-(oxazol-2-yl)pyridin-3-yl)phenyl benzylcarbamate], the results for the pIC50 at human recombinant FAAH and at human recombinant MAGL were less than 6.00 and less than 5.00, respectively.

As to `O=C(NCc1ccccc1)Oc1cccc(-c2cncc(-c3nncs3)c2)c1` [Example 209, 3-(5-(1,3,4-thiadiazol-2-yl)pyridin-3-yl)phenyl benzylcarbamate], the pIC50 at human recombinant FAAH is approximately 7.00; on human recombinant MAGL, less than 5.00.

With `COC(=O)c1cncc(-c2cccc(OC(=O)NC3CCCCC3)c2)c1` [Example 12, methyl 5-(3-((cyclohexylcarbamoyl)oxy)phenyl)nicotinate], the pIC50 was 7.00 to 8.00 on human recombinant FAAH and less than 5.00 at human recombinant MAGL.

In the case of `COc1ccc(OC(=O)NCc2ccccc2)cc1-c1cncc(-c2nncs2)c1` [Example 215, 3-(5-(1,3,4-thiadiazol-2-yl)pyridin-3-yl)-4-methoxyphenyl benzylcarbamate], the pIC50 is 6.00 to 7.00 on human recombinant FAAH and less than 5.00 on human recombinant MAGL.

`CCCCCNC(=O)Oc1cccc(-c2cncc(-c3ncco3)c2)c1` [Example 71, 3-(5-(oxazol-2-yl)pyridin-3-yl)phenyl pentylcarbamate]: the pIC50 on human recombinant FAAH is 6.00 to 8.00; on human recombinant MAGL, less than 5.00.

`N#Cc1cncc(-c2cccc(OC(=O)NC3CCCCC3)c2)c1` [Example 28, 3-(5-cyanopyridin-3-yl)phenyl cyclohexylcarbamate]: the pIC50 on human recombinant FAAH was 6.00 to 7.00; at human recombinant MAGL, less than 5.00.

On to `COc1ccc(OC(=O)NC2CCCCCC2)cc1-c1cncc(-c2ccco2)c1` [Example 58, 3-(5-(furan-2-yl)pyridin-3-yl)-4-methoxyphenyl cycloheptylcarbamate], for which the values for the pIC50 on human recombinant FAAH and on human recombinant MAGL were 6.00 to 7.00 and less than 5.00, respectively.

In the case of `O=C(Nc1cnccc1Cl)N1CCN(Cc2ccc3c(c2)OC(F)(F)O3)CC1` [JNJ-42165279, reference compound], the pIC50 was 6.98 at human recombinant FAAH and less than 4.30 at human recombinant MAGL. In addition, on human recombinant MAGL (FAAH over MAGL), the “fold-selectivity over MAGL (selectivity index)” value is reported as 473 times.

Take `COc1ccc(OC(=O)NCc2ccccc2)cc1-c1cncc(-c2ccc[nH]2)c1` [Example 43, 3-(5-(1H-pyrrol-2-yl)pyridin-3-yl)-4-methoxyphenyl benzylcarbamate]: the pIC50 at human recombinant FAAH was less than 6.00; on human recombinant MAGL, less than 5.00.

As for `COc1cc(OC(=O)NC2CCCCC2)cc(-c2cncc(-c3nnco3)c2)c1` [Example 178, 3-(5-(1,3,4-oxadiazol-2-yl)pyridin-3-yl)-5-methoxyphenyl cyclohexylcarbamate], the pIC50 is approximately 7.00 at human recombinant FAAH and less than 5.00 on human recombinant MAGL.

As for `O=C(NCC1CCCCC1)Oc1cccc(-c2cncc(-c3ncno3)c2)c1` [Example 204, 3-(5-(1,2,4-oxadiazol-5-yl)pyridin-3-yl)phenyl (cyclohexylmethyl)carbamate], the results for the pIC50 at human recombinant FAAH and at human recombinant MAGL were 7.00 to 8.00 and less than 5.00, respectively.

With `O=C(NC1CCCC1)Oc1cccc(-c2cncc(-c3ccc[nH]3)c2)c1` [Example 38, 3-(5-(1H-pyrrol-2-yl)pyridin-3-yl)phenyl cyclopentylcarbamate], the pIC50 on human recombinant FAAH was 6.00 to 7.00; at human recombinant MAGL, less than 5.00.

Regarding `O=C(NCc1ccccc1)Oc1ccc(O)c(-c2cncc(-c3ncn[nH]3)c2)c1` [Example 228, 3-(5-(1H-1,2,4-triazol-5-yl)pyridin-3-yl)-4-hydroxyphenyl benzylcarbamate], the pIC50 at human recombinant FAAH is 6.00 to 7.00; on human recombinant MAGL it was less than 5.00.

Take `O=C(NCC1CCCCC1)Oc1cccc(-c2cc(-c3nnco3)ccn2)c1` [Example 257, 3-(4-(1,3,4-oxadiazol-2-yl)pyridin-2-yl)phenyl (cyclohexylmethyl)carbamate]: the pIC50 on human recombinant FAAH was 7.00 to 8.00; on human recombinant MAGL, less than 5.00.

`CCCCCCCCNC(=O)Oc1cccc(-c2cncc(-c3ncn[nH]3)c2)c1` [Example 219, 3-(5-(1H-1,2,4-triazol-5-yl)pyridin-3-yl)phenyl octyl carbamate]: the pIC50 was 8.00 to 9.00 on human recombinant FAAH and approximately 5.00 on human recombinant MAGL.

Turning to `O=C(NC1CCCCC1)Oc1ccc(O)c(-c2cncc(-c3ncn[nH]3)c2)c1` [Example 230, 3-(5-(1H-1,2,4-triazol-5-yl)pyridin-3-yl)-4-hydroxyphenyl cyclohexyl carbamate], the pIC50 was 6.00 to 7.00 on human recombinant FAAH and less than 5.00 at human recombinant MAGL.

As for `CCCCCCCCNC(=O)Oc1ccc(OC)c(-c2cncc(-c3ncco3)c2)c1` [Example 78, 4-methoxy-3-(5-(oxazol-2-yl)pyridin-3-yl)phenyl octylcarbamate], the pIC50 was 7.00 to 8.00 at human recombinant FAAH and 5.00 to 6.00 on human recombinant MAGL.

As for `CC1CCCCN1C(=O)Oc1cccc(-c2cncc(-c3nnco3)c2)c1` (stereo not drawn) [Example 143, 3-(5-(1,3,4-oxadiazol-2-yl)pyridin-3-yl)phenyl 2-methylpiperidine-1-carboxylate], the values for the pIC50 on human recombinant FAAH and at human recombinant MAGL were approximately 5.00 and less than 5.00, respectively.

For the compound `O=C(NC12CC3CC(CC(C3)C1)C2)Oc1cccc(-c2cncc(-c3ncco3)c2)c1` [Example 77, 3-(5-(oxazol-2-yl)pyridin-3-yl)phenyl ((1s,3s)-adamantan-1-yl)carbamate], the pIC50 was less than 6.00 on human recombinant FAAH and less than 5.00 on human recombinant MAGL.

`N#Cc1cncc(-c2cccc(OC(=O)NC3CCCCCC3)c2)c1` [Example 29, 3-(5-cyanopyridin-3-yl)phenyl cycloheptylcarbamate]: the pIC50 on human recombinant FAAH is approximately 7.00; at human recombinant MAGL it was less than 5.00.

In the case of `O=C(Oc1cccc(-c2cncc(-c3nnco3)c2)c1)N1C2CCCC1CC2` [Example 150, 3-(5-(1,3,4-oxadiazol-2-yl)pyridin-3-yl)phenyl 8-azabicyclo[3.2.1]octane-8-carboxylate], the pIC50 is less than 6.00 at human recombinant FAAH and less than 5.00 on human recombinant MAGL.

For `O=C(NC1CCCCCC1)Oc1cccc(-c2cncc(-c3ccco3)c2)c1` [Example 52, 3-(5-(furan-2-yl)pyridin-3-yl)phenyl cycloheptylcarbamate], the negative logarithm of the IC50 (pIC50) at human recombinant FAAH is 7.00 to 8.00; on human recombinant MAGL it was approximately 5.00.

For `CCCCCCCCNC(=O)Oc1cccc(-c2cncc(-c3ncco3)c2)c1` [Example 73, 3-(5-(oxazol-2-yl)pyridin-3-yl)phenyl octylcarbamate], the results for the pIC50 at human recombinant FAAH and on human recombinant MAGL were 8.00 to 9.00 and less than 5.00, respectively.

By pIC50 is commonly meant the IC50 on a negative log10 scale, so that one unit is a factor of ten.
